Experimental data reported in US20090111810A1, “SUBSTITUTED PYRIMIDINE-5-CARBOXAMIDE AND 5-CARBOXYLIC ESTER KINASE INHIBITORS” (priority 2007, published 2009).

Columns and labels:
A375 malignant melanoma = experiment: Inhibition of in vitro cell proliferation (14C-thymidine incorporation), A375; format: cell-based; details: Homo sapiens, A-375, A375 cells
Method: (§1) The ability of a test compound to inhibit the proliferation of cell growth was determined by measuring incorporation of ^14C-labelled thymidine into newly synthesized DNA within the cells. This method was used on American Type Culture Collection (ATCC, Virginia) cell lines derived from carcinomas originating from several tissues such as HeLa cervical adenocarcinoma (ATCC Cat. #CCL-2), HCT-116 colon carcinoma (ATCC Cat. #CCL-247), and A375 malignant melanoma (ATCC Cat. #CRL-1619).
(§2) The carcinoma cells are trypsinized and counted. The cells (3000-8000 count) are added to each well of a 96-well CytoStar tissue culture treated scintillating microplate (Amersham #RPNQ0160) in complete medium (100 μL) and the plate is then incubated in complete medium for 24 hrs at 37° C. in an inert atmosphere containing 5% CO2.
(§3) Test compound (1 μL) in 100% DMSO is added to the plate test-wells with DMSO only added to control-wells. The plate is incubated in complete medium for a second 24 hr period at 37° C. in an atmosphere containing 5% CO2.
(§4) An aliquot of a solution of Methyl ^14C-thymidine (56 mC/mmol) (NEN #NEC568 or Amersham #CFA532) in complete medium (20 uL to provide 0.2 μCi/well) is then added to each well and the plate is incubated for a third 24 hr period at 37° C. in an atmosphere containing 5% CO2.
(§5) The plate contents are then discarded, the plate is washed twice with PBS (200 μL) and then PBS (200 μL) is added to each well. The plate is sealed and the degree of methyl ^14C-thymidine incorporation is quantified on a Packard Top Count.

[1] = tested on: HeLa cervical adenocarcinoma; experiment: Inhibition of in vitro cell proliferation (14C-thymidine incorporation), HeLa; format: cell-based; details: Homo sapiens, HeLa cells
Method: as §1, §2, §3, §4, §5

[2] = molecular target: T1, HER-2 kinase (GST-HIS6-Thrombin fusion, amino acids 679 to 1255 of HER-2) (Homo sapiens, UniProt P04626); experiment: HER-2 Kinase Assay; format: biochemical; details: for inhibition at 100 µM: test concentration of 100 μM, read-out: HER2 % inhibition; for IC50: read-out: HER2 IC50
T1 construct: HIS6-Thrombin site (N); purchased Proqinase (Freiburg, Germany)
Method: The HER-2 kinase used was purified at Proqinase (Freiburg, Germany) from a construct that consisted of a fusion of GST (Glutathione-S-Transferase), HIS6-Thrombin and the nucleotides encoding amino acids 679 to 1255 of HER-2 (Accession Number M11730).
A mixture of a 10× kinase reaction buffer (600 mM Hepes at pH 7.5, 30 mM Magnesium Chloride, 0.03 mM Sodium Vanadate and 500 μg/mL PEG 20,000), DTT (1.2 mM final from a 10 mM stock), ATP (1 μM from a 10 mM stock), biotinylated polyGluTyr (1.5 ng/μL final from stock of 1 μg/μL) prepared by Upstate Biotechnologies, Lake Placid, N.Y.), Manganese Chloride (3 mM final from a 1 M stock), γ-^33P-ATP (10 μCi/μL stock) and water (70 μL/well) was added to each well of a Streptavidin Flashplate (Cat. # SMP103, NEN, Boston, Mass.).
Test compound stock (1 μL) was added to the appropriate wells. Diluted GSTHER2 kinase (6.7 ng/μL diluted into 50 mM Tris-HCl at pH 8.0 and 0.1% bovine serum albumin) (30 μL) was added (total volume of 200 ng/well) to initiate the reactions.
The reaction plates were incubated at 30° C. for 1 hr. The reaction was terminated by aspirating the reaction mixture from the plate wells and washing the wells three times with a 1× PBS stop buffer (300 μL) and 100 mM EDTA. After the final wash, the same stop buffer (200 μL) was again added to the wells. The plates were then sealed and read on the TopCount scintillation counter.
Test compounds were assayed in triplicate at 8 concentrations at one-log dilutions starting at 100 μM. A maximum and minimum signal for the assay was determined on each plate. The percent inhibition of a test compound was calculated according to the formula: […]
(§6) For a series of test concentrations, the IC50 was derived by graphing percent inhibition against the log of the concentrations tested for a given compound.

HCT-116 colon carcinoma = experiment: Inhibition of in vitro cell proliferation (14C-thymidine incorporation), HCT116; format: cell-based; details: Homo sapiens, HCT116 cells
Method: as §1, §2, §3, §4, §5

[3] = molecular target: T2, EGFR kinase (GST fusion of intracellular portion of EGFR, NM_005228) (Homo sapiens, UniProt P00533); experiment: EGFR Kinase Assay; format: biochemical; details: for inhibition at 2 µM: test concentration of 2 μM
T2 construct: The intracellular portion of EGFR started at nucleotide 2189 (corresponding to amino acid 667) and ended at the termination codon; made in house; host or cells: Sf9 insect cells (baculovirus)
Description: The portion was PCR amplified with primers that added the lambda attB sequences to each end, recombined into an entry vector, then into a (GST destination vector (as described in Gateway Technologies Manual by Invitrogen Corporation, Carlsbad, Calif.).
The destination vector was recombined in the DH10BAC strain of bacteria to produce a bacmid. The bacmid was transfected into Sf 9 cells and the supernatant containing the baculovirus was collected. The GSTEGFR protein was purified using large cultures of Sf 9 cells infected with stock virus. After an appropriate period of time, the cells were collected and lysed. The GSTEGFR was then purified from the lysate on Glutathione-Sepharose columns (as described by Amersham Biosciences, Buckinghamshire, United Kingdom).
The free biotin was separated from the biotinylated polyGluTyr on a gel filtration column.
A mixture of a 10× kinase buffer (500 mM Tris at pH 8.0, 100 mM Magnesium Chloride and 1 mM Sodium Vanadate), DTT (1 mM final from 500 mM stock), ATP (5 μM final from […]), biotinylated polyGluTyr (10 μg/μL stock), γ-^33P ATP (10 μCi/μL stock) and water was added to each well (90 μL/well) of a Streptavidin Flashplate (Perkin Elmer, Wellesley, Mass.).
Test compound in 100% DMSO (2 μL) was added to the appropriate wells. Diluted GSTEGFR (1:300 dilution in 50 mM Tris at pH 8.0 and 0.1% bovine serum albumin) (10 μL) was added to the wells to initiate the reactions.
The plates were incubated at 30° C. for 1 hr with shaking, The reacted contents were removed and the plates were sequentially washed three times with a 1×PBS stop buffer (300 μL without Magnesium and Calcium) and 100 mM EDTA. After the final wash, the same stop buffer (200 μL) was added to the wells. The plates were then sealed and read on the TopCount scintillation counter.
Test compounds were assayed in triplicate at 16 concentrations at half-log dilutions starting at 200 μM. A maximum and minimum signal for the assay was determined on each plate. The percent inhibition of a test compound was calculated according to the formula
as §6

T1 sequence (P04626 679-1255): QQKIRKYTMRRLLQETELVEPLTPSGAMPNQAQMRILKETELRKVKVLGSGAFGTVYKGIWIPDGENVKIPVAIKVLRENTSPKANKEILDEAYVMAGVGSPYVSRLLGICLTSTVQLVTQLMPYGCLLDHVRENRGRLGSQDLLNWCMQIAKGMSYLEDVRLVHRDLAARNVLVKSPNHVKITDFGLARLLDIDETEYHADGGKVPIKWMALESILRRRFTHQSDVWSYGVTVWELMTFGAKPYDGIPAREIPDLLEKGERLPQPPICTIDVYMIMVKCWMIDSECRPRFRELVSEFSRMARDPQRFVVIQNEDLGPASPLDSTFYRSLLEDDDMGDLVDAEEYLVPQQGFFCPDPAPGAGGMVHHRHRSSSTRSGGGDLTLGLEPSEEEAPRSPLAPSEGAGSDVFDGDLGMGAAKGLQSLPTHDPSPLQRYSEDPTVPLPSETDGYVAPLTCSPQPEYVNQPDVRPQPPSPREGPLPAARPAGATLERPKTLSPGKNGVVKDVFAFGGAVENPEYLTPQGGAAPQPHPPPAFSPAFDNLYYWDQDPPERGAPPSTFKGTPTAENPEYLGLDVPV
T2 sequence (P00533 669-1210 limits assumed): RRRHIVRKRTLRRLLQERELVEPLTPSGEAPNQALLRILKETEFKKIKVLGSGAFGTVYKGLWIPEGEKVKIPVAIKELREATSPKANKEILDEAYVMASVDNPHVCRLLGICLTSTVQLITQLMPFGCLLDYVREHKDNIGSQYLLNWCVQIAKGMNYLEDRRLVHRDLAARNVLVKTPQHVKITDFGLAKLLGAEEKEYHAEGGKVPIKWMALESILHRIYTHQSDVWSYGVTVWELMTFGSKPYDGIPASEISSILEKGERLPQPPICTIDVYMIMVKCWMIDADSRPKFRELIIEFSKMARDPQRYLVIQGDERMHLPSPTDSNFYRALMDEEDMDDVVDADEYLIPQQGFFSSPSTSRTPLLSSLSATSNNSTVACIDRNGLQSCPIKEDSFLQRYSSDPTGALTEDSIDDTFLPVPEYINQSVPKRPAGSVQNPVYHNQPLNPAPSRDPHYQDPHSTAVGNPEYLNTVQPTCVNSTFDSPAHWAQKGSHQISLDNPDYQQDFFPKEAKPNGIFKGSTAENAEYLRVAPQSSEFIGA

Compound `COC(=O)c1c(N)ncnc1Nc1ccc(OCc2ccccc2)c(Cl)c1` [Cpd 1, 4-amino-6-(4-benzyloxy-3-chloro-phenylamino)-pyrimidine-5-carboxylic acid methyl ester] has an IC50 (A375 malignant melanoma) of 1 µM, an IC50 [1] of 1.9 µM and an inhibition at 100 µM [2] of 92%. The IC50 (HCT-116 colon carcinoma) was 3 µM.
Work on `Nc1ncnc(Nc2ccc(OCc3ccccc3)c(Cl)c2)c1C(=O)O` [Cpd 2, 4-amino-6-(4-benzyloxy-3-chloro-phenylamino)-pyrimidine-5-carboxylic acid] yielded an IC50 (A375 malignant melanoma) greater than 10 µM, an IC50 [1] greater than 10 µM and an IC50 [2] of 0.78 µM. For the same compound, the IC50 (HCT-116 colon carcinoma) was greater than 10 µM.
For `Nc1ncnc(Nc2ccc(OCc3ccccc3)c(Cl)c2)c1C(=O)NCCN1CCCCC1` [Cpd 7, 4-amino-6-(4-benzyloxy-3-chloro-phenylamino)-pyrimidine-5-carboxylic acid (2-piperidin-1-yl-ethyl)-amide], the IC50 (A375 malignant melanoma) was greater than 1 µM, the IC50 [1] was 34 µM and the IC50 [2] was 10 µM. It also gave an IC50 (HCT-116 colon carcinoma) greater than 10 µM and an inhibition at 2 µM [3] of 42%.
For `COc1ccc(CCNC(=O)c2c(N)ncnc2Nc2ccc(OCc3ccccc3)c(Cl)c2)cc1` [Cpd 9, 4-amino-6-(4-benzyloxy-3-chloro-phenylamino)-pyrimidine-5-carboxylic acid [2-(4-methoxy-phenyl)-ethyl]-amide], the IC50 (A375 malignant melanoma) was greater than 100 µM, the IC50 [1] was greater than 100 µM and the inhibition at 100 µM [2] was 4%. The IC50 (HCT-116 colon carcinoma) was greater than 100 µM and the inhibition at 2 µM [3] was 28%.
With `Nc1ncnc(Nc2ccc(OCc3ccccc3)c(Cl)c2)c1C(=O)NNC(=O)CCN1CCOCC1` [Cpd 13, 4-amino-6-(4-benzyloxy-3-chloro-phenylamino)-pyrimidine-5-carboxylic acid N′-(3-morpholin-4-yl-propionyl)-hydrazide] the IC50 (A375 malignant melanoma) was greater than 100 µM, the IC50 [1] was greater than 100 µM and the IC50 [2] was 5.7 µM. It also gave an IC50 (HCT-116 colon carcinoma) greater than 100 µM and an IC50 [3] of 0.62 µM.
For `Nc1ncnc(Nc2ccc(OCc3ccccc3)c(Cl)c2)c1C(=O)OCCN1CCOCC1` [Cpd 3, 4-amino-6-(4-benzyloxy-3-chloro-phenylamino)-pyrimidine-5-carboxylic acid 2-morpholin-4-yl-ethyl ester], the IC50 (A375 malignant melanoma) was 5.1 µM, the IC50 [1] was greater than 10 µM and the IC50 [2] was 1.38 µM.
`Nc1ncnc(Nc2ccc(OCc3ccccc3)c(Cl)c2)c1C(=O)Nc1ccccc1` [Cpd 10, 4-amino-6-(4-benzyloxy-3-chloro-phenylamino)-pyrimidine-5-carboxylic acid phenylamide] gave an IC50 (A375 malignant melanoma) greater than 100 µM, an IC50 [1] greater than 100 µM and an inhibition at 100 µM [2] of 12%. The IC50 (HCT-116 colon carcinoma) was greater than 100 µM.
Work on `Nc1ncnc(Nc2ccc(OCc3ccccc3)c(Cl)c2)c1C(=O)NCCN1CCOCC1` [Cpd 8, 4-amino-6-(4-benzyloxy-3-chloro-phenylamino)-pyrimidine-5-carboxylic acid (2-morpholin-4-yl-ethyl)-amide] yielded an IC50 (A375 malignant melanoma) greater than 10 µM, an IC50 [1] greater than 10 µM and an inhibition at 100 µM [2] of 82%. It also gave an IC50 (HCT-116 colon carcinoma) greater than 10 µM and an inhibition at 2 µM [3] of 35%.
With `NNC(=O)c1c(N)ncnc1Nc1ccc(OCc2ccccc2)c(Cl)c1` [Cpd 12, 4-amino-6-(4-benzyloxy-3-chloro-phenylamino)-pyrimidine-5-carboxylic acid hydrazide] the IC50 (A375 malignant melanoma) was 1.7 µM, the IC50 [1] was 3 µM and the IC50 [2] was 0.15 µM. For the same compound, the IC50 (HCT-116 colon carcinoma) was 3.4 µM.
For `COc1ccc(NC(=O)c2c(N)ncnc2Nc2ccc(OCc3ccccc3)c(Cl)c2)cc1` [Cpd 11, 4-amino-6-(4-benzyloxy-3-chloro-phenylamino)-pyrimidine-5-carboxylic acid (4-methoxy-phenyl)-amide], the IC50 (A375 malignant melanoma) was greater than 100 µM, the IC50 [1] was greater than 100 µM and the inhibition at 100 µM [2] was 0%. It also gave an IC50 (HCT-116 colon carcinoma) greater than 100 µM and an inhibition at 2 µM [3] of 36%.
With `COCCNC(=O)c1c(N)ncnc1Nc1ccc(OCc2ccccc2)c(Cl)c1` [Cpd 6, 4-amino-6-(4-benzyloxy-3-chloro-phenylamino)-pyrimidine-5-carboxylic acid (2-methoxy-ethyl)-amide] the IC50 (A375 malignant melanoma) was greater than 100 µM, the IC50 [1] was greater than 100 µM and the inhibition at 100 µM [2] was 33%. The IC50 (HCT-116 colon carcinoma) was greater than 100 µM and the inhibition at 2 µM [3] was 37%.
Work on `CCN(CC)C(=O)c1c(N)ncnc1Nc1ccc(OCc2ccccc2)c(Cl)c1` [Cpd 5, 4-amino-6-(4-benzyloxy-3-chloro-phenylamino)-pyrimidine-5-carboxylic acid diethylamide] yielded an IC50 (A375 malignant melanoma) greater than 10 µM, an IC50 [1] greater than 10 µM and an inhibition at 100 µM [2] of 39%. It also gave an IC50 (HCT-116 colon carcinoma) greater than 10 µM and an inhibition at 2 µM [3] of 36%.
In the case of `Nc1ncnc(Nc2ccc(OCc3ccccc3)c(Cl)c2)c1C=O` [Cpd 14, 4-amino-6-(4-benzyloxy-3-chloro-phenylamino)-pyrimidine-5-carboxaldehyde], the inhibition at 100 µM [2] is reported as 63%.
`Nc1ncnc(Nc2ccc(OCc3ccccc3)c(Cl)c2)c1C(=O)OCc1cccc(F)c1` [Cpd 4, 4-amino-6-(4-benzyloxy-3-chloro-phenylamino)-pyrimidine-5-carboxylic acid 3-fluoro-benzyl ester] was tested, and the IC50 (A375 malignant melanoma) was greater than 10 µM, the IC50 [1] was greater than 10 µM and the inhibition at 100 µM [2] was 21%. For the same compound, the IC50 (HCT-116 colon carcinoma) was greater than 10 µM and the inhibition at 2 µM [3] was 34%.
